In patent US5847123A, “Imide derivatives for inhibiting the production of interleukin-1β and the production of tumor necrosis factor α” (Nisshin Flour Milling Co., Ltd., priority 1996, dated 1998):

Tests used:
TNFα production [1] = test: Inhibitory activity of the TNFα production in PMA/polyinosic acid-stimulated THP-1 cells (ELIZA kit); type: cell-based, human (THP-1 cells); details: Homo sapiens, PMA 2 μg/ml and polyinosic acid 200 μg/ml, 22 hours
Method: (§1) Determination for the inhibitory activity of the IL-1β production and the inhibitory activity of the TNFα production
(§2) The THP-1 cells, which is the monocyte-established cell line derived from human peripheral blood (ATCC TIB202), were incubated at 37° C. in a 5% CO2 incubator in RPMI 1640 medium (available from Bio-Whittaker Co., Ltd.) containing 10% (v/v) of fetal bovine serum, 2 mM of glutamine, 50 μM of 2-mercaptoethanol, 60 μg/ml of penicillin and 100 μg/ml of streptomycin. The THP-1 cells maintained as described above were centrifuged at 1200 rpm at room temperature for 3 minutes to recover the cells in a 50 ml conical tube. The cell pellets thus obtained were resuspended in RPMI 1640 medium containing 2% (v/v) of fetal bovine serum and the glutamine, 2-mercaptoethanol and antibiotics as described above so as to provide a final THP-1 cell concentration of 2×10^6 cells/ml.
(§3) The cell resuspension having the above concentration was dispensed in 0.5 ml portions to a 24-well plate for cell culture. Then, 2.5 μl each of the solutions of the present imide derivatives dissolved in DMSO was added to each well. The plate was then incubated at 37° C. in a 5% CO2 incubator for one hour. Then, 12-o-tetradecanoylphorbol-13-acetate (hereinafter referred to as PMA) and polyinosic acid were added to each well so as to provide the final concentrations of 2 μg/ml and 200 μg/ml, respectively. The plate was further incubated at 37° C. in a 5% CO2 incubator for 22 hours and the IL-1β and TNFα produced in the cultured broth were assayed. The assay for IL-1β was carried out by means of the enzyme immunoassay kit available from Cayman Chemical Co., Ltd., while the assay of TNFα was done by means of the ELIZA kit available from Genzyme Co., Ltd.
(§4) The inhibitory activity was expressed in terms of IC50 values, wherein the produced amount of IL-1β and the produced amount of TNFα when no imide derivative was added are defined as 100, respectively, and the concentration of each imide derivative of the present invention to inhibit the IL-1β production and TNFα production is defined as IC50, respectively.

IL-1β production = test: Inhibitory activity of the IL-1β production in PMA/polyinosic acid-stimulated THP-1 cells (enzyme immunoassay); type: cell-based, human (THP-1 cells); details: Homo sapiens, PMA 2 μg/ml and polyinosic acid 200 μg/ml, 22 hours
Method: as §1, §2, §3, §4

[2] = Determination for cytotoxicity in THP-1 cells (Alamar Blue); type: cell-based; details: human, 24 hours incubation, read-out: LD50 (lethal dose for 50% in the THP-1 cells)
Method: Determination for Cytotoxicity The THP-1 cells, which is the monocyte-established cell line derived from human peripheral blood (ATCC TIB202), were incubated at 37° C. in a 5% CO2 incubator in RPMI 1640 medium (available from Bio-Whittaker Co., Ltd.) containing 10% (v/v) of fetal bovine serum, 2 mM of glutamine, 50 μM of 2-mercaptoethanol, 60 μg/ml of penicillin and 100 μg/ml of streptomycin. The THP-1 cells maintained as described above were centrifuged at 1200 rpm at room temperature for 3 minutes to recover the cells in a 50 ml conical tube. The cell pellets thus obtained were suspended in RPMI 1640 medium containing 2% (v/v) of fetal bovine serum, 2 mM of glutamine, 50 μM of 2-mercaptoethanol, 60 μg/ml of penicillin and 100 μg/ml of streptomycin so as to provide the final cell concentration of 1×10^6 cells/ml. The cell suspension obtained as above was dispensed in 1 ml portions to a 24-well plate for cell culture. Then, 5 μl each of the solutions of the present imide derivatives dissolved in DMSO was added to each well. The plate was then incubated at 37° C. in a 5% CO2 incubator for 24 hours. After incubation, 100 μl of Alamar Blue (available from Biosource Co., Ltd.) was added to each well and then the plate was further incubated at 37° C. in a 5% CO2 incubator for 3 hours. Thereafter, a supernatant was recovered and determined for a difference in absorbances at 570 nm and 600 nm. Cytotoxicity was then evaluated in accordance with the survival rates determined from the differences in absorbances. More specifically, the lethal dose for 50% (LD50) in the THP-1 cells were calculated.

TNFα production [3] = test: Inhibitory activity of the TNFα production in LPS-treated mice (blood TNFα level); type: in vivo, DBA/2 strain mice; details: for Inhibitory rate (%) of TNFα production: 10 mg/kg i.p. twice (before and after 30 minutes from LPS 5.6 mg/kg i.v.), blood TNFα after 2 hours; for inhibitory activity on the TNFα production in mice (in words): 10 mg/kg i.p., LPS-treated DBA/2 mice
Method: Determination for the inhibitory activity of the TNFα production To the DBA/2 strain mice previously given with LPS 5.6 mg/kg, i.v. were intraperitoneally administered twice before and after 30 minutes from the LPS administration the present imide derivatives selected from Compound 1, Compound 3, Compound 7, Compound 8, Compound 9 and Compound 26. After 2 hours from the LPD administration, the blood TNFα level was determined to investigate the inhibitory activity of the present imide derivatives on the TNFα production. More specifically, the blood TNFα level was determined when the present imide derivative was given at a dose of 10 mg/kg to calculate the inhibitory rate of the TNFα production.

Compound | IC50 (TNFα production [1]) [µM] | IC50 (IL-1β production) [µM] | CC50 at 24 h [2] [µM] | Inhibitory rate (%) of TNFα production (TNFα production [3]) [%] | inhibitory activity on the TNFα production in mice (in words) (TNFα production [3])
N#Cc1ccc(C#CC(=O)N2CCCC2=O)cc1 [Compound 4] | 1.7 | 7 |  |  | 
O=C(C#Cc1ccccc1)N(C(=O)c1ccccc1)c1ccc(F)cc1F [Compound 27] | 3 | 14 |  |  | 
O=C(C#Cc1ccccc1)N1CCNC1=O [Compound 11] | 0.5 | 1.8 |  |  | 
CCN(C(=O)C#Cc1ccccc1)C(=O)c1ccccc1 [Compound 12] | 5.4 | 9.6 |  |  | 
N#Cc1ccc(C#CC(=O)N2CCOC2=O)cc1 [Compound 5] | 2.1 | 2.6 |  |  | 
CCN(C(C)=O)C(=O)C#Cc1ccccc1 [Compound 18] | 4.4 | 5.7 |  |  | 
O=C(C#Cc1ccc(F)cc1)N1CCCC1=O [Compound 3] | 1.3 | 3.8 | > 100 | 37 | significant inhibitory activity
CCN(C(=O)C#Cc1ccccc1)C(=O)c1cccs1 [Compound 25] | 4.8 | > 30 |  |  | 
CC(=O)N(C(=O)C#Cc1ccccc1)c1ccncc1 [Compound 26] | 1.7 | 8.8 |  | 37 | significant inhibitory activity
CC(=O)N(CCN(C)C)C(=O)C#Cc1ccccc1 [Compound 30] | 3.7 | 6.3 |  |  | 
CC(=O)N(C(=O)C#Cc1ccccc1)c1ccc2c(c1)OCO2 [Compound 15] | 1.7 | 6.3 |  |  | 
Cc1ccccc1N(C(=O)C#Cc1ccccc1)C(=O)CCc1ccccc1 [Compound 20] | 1.9 | 1.3 |  |  | 
O=C(C#Cc1ccccc1)N(Cc1ccc(F)cc1)C(=O)c1ccccc1 [Compound 13] | 15 | 15 |  |  | 
COC(=O)C1CCC(=O)N1C(=O)C#Cc1ccccc1 (racemic) [Compound 21] | 0.6 | 7 |  |  | 
COc1ccccc1CN(C(C)=O)C(=O)C#Cc1ccccc1 [Compound 17] | 1.8 | 3.1 |  |  | 
O=C(C#Cc1ccccc1)N1CCCCCC1=O [Compound 8] | 2.1 | 6 | > 200 | 31 | significant inhibitory activity
CCN(C(=O)C#Cc1ccccc1)C(=O)COC [Compound 29] | > 30 | > 30 |  |  | 
CCCCC(=O)N(CCCC)C(=O)C#Cc1ccccc1 [Compound 16] | 14 | 13 |  |  | 
O=C(C#Cc1ccccc1)N1CCN(C(=O)C#Cc2ccccc2)C1=O [Compound 10] | 0.5 | 6.7 |  |  | 
CC(=O)N(CCc1ccccc1)C(=O)C#Cc1ccccc1 [Compound 28] | 1.7 | 8.8 |  |  | 
O=C(C#Cc1ccc(Cl)cc1)N1CCCC1=O [Compound 2] | 1.6 | 5.5 |  |  | 
CCN(C(=O)C#Cc1ccccc1)C(=O)Cc1ccccc1Cl [Compound 19] | 1.3 | 2 |  |  | 
CC1CCC(=O)N1C(=O)C#Cc1ccccc1 (stereo not shown) [Compound 9] | 0.9 | 2.8 | 110 | 29 | significant inhibitory activity
CC(=O)NC(=O)C#Cc1ccccc1 [Compound 14] | 1.8 | 4.4 |  |  | 
CC(=O)N(C(=O)C#Cc1ccccc1)c1ccccn1 [Compound 22] | 14 | 12 |  |  | 
CC(=O)N(Cc1ccco1)C(=O)C#Cc1ccccc1 [Compound 24] | 4.4 | 10 |  |  | 
O=C(C#Cc1ccccc1)N1CCOC1=O [Compound 7] | 1.2 | 1.1 | > 200 | 22 | significant inhibitory activity
O=C(C#Cc1ccccc1)N1CCCC1=O [Compound 1] | 1 | 1.4 | 70 | 22 | significant inhibitory activity
O=C(C#Cc1ccc(F)cc1)N1CCOC1=O [Compound 6] | 1.7 | 2.4 | > 100 |  | 
